Assays:
Assay type in all cases: cell-based, murine
G11 cells [1] = test: Induction of differentiation of HuB (Hel-N2) stably transfected P19 (G11) cells; conditions: 5% DMSO, harvested after about eight days
Experimental: The cells were then plated into two 100 mm gelatin-coated tissue culture plates. Cells were harvested after an additional four days. […] Neuronal differentiation was induced by treating 5×10^5 G11 or P19 cells placed on a 60 mm petri dish with 0.5 μM RA (Sigma-Aldrich, St. Louis, Mo., Catalog # R2625). Muscle differentiation was induced by treating 5×10^5p19 cells placed on a 60 mm petri dish with 5% DMSO (Sigma-Aldrich, St. Louis, Mo., Catalog # D2650). After two days, 25% of the cells that had formed into clumps were removed, placed in new petri dishes, and supplemented with fresh medium and RA or DMSO. Following an additional two days, cell aggregates were washed once with phosphate-buffered saline (PBS) and trypsinized. The cells were then plated into two 100 mm gelatin-coated tissue culture plates. Cells were harvested after an additional four days. […] Cell extracts and immunoprecipitations were performed as described in Example 1. Monoclonal anti-gene 10 (g10) antibodies were obtained from Duke University (Durham, N.C.) as previously described in Examples 1 and 2.

G11 cells [2] = test: Quantitative PCR of CACN, CELSR and MBNL RNA expression in G11 cells over the time course of differentiation; conditions: time course of one to nine days
Experimental: The expression of these three genes was analyzed by Quantitative RT-PCR during a time course of one to nine days of treatment with either dimethyl-sulfoxide or retinoic acid. To verify a role in neuronal differentiation, a comprehensive transcriptional analysis by Quantitative PCR was undertaken looking at the patterns of RNA expression for the […], and MBNL genes in the G11 cells (constitutively expressing HuB) and in the parental P19 cells (FIGS. 12A, 12B, and 12C).

G11 cells [3] = test: Microarray of total cellular RNA of G11 cells, differentiated/undifferentiated; conditions: change in amount of RNA, day 1 and day 9
Experimental: Neuronal differentiation was induced by treating 5×10^5 G11 or P19 cells placed on a 60 mm petri dish with 0.5 μM RA (Sigma-Aldrich, St. Louis, Mo., Catalog # R2625). Muscle differentiation was induced by treating 5×10^5p19 cells placed on a 60 mm petri dish with 5% DMSO (Sigma-Aldrich, St. Louis, Mo., Catalog # D2650). After two days, 25% of the cells that had formed into clumps were removed, placed in new petri dishes, and supplemented with fresh medium and RA or DMSO. Following an additional two days, cell aggregates were washed once with phosphate-buffered saline (PBS) and trypsinized. The cells were then plated into two 100 mm gelatin-coated tissue culture plates. Cells were harvested after an additional four days. […] Cell extracts and immunoprecipitations were performed as described in Example 1. Monoclonal anti-gene 10 (g10) antibodies were obtained from Duke University (Durham, N.C.) as previously described in Examples 1 and 2. Following immunoprecipitation, the associated mRNAs were identified on high density mouse 12K glass slide microarrays (Mouse cDNA microarray kit, Catalog # […], Agilent Technologies, Palo Alto, Calif.). RNA labeling and microarray analysis was performed according to the manufacturer's protocols (Agilent Technologies, Palo Alto, Calif.).

SMILES	muscle differentiation (morphology and markers) (G11 cells [1])	expression patterns of the CACN, CELSR and MBNL genes (G11 cells [2])	ΔTotal Cellular RNA, CACN (G11 cells [3])	ΔTotal Cellular RNA, CELSR (G11 cells [3])	ΔTotal Cellular RNA, MBNL (G11 cells [3])
C[S+](C)[O-] [DMSO, dimethyl-sulfoxide]	displayed characteristic muscle cell markers and morphology	failed to induce changes			
CC1=C(/C=C/C(C)=C/C=C/C(C)=C/C(=O)O)C(C)(C)CCC1 [RA, retinoic acid]			+1.31X	−1.33X	+1.42X

From US8815517B2, “Methods for identifying functionally related genes and drug targets” (Ribonomics, Inc., priority 1999, dated 2014)
